Read-outs that look alike come from different tables or passages of the source.
Assays:
[1] = test system: individuals with type 2 diabetes; assay: Hypoglycaemic symptoms score (HSS, Edinburgh Hypoglycaemia Scale) during hypoglycaemia induction; settings: for Change in HSS at PG3.0 mmol/l, least-squares mean: change from baseline PG5.5 mmol/l; for Change in HSS at PG3.0 mmol/l, least-squares mean / Change in HSS at PGnadir, least-squares mean: subgroup; for Change in HSS at PGnadir, least-squares mean: change from baseline
Experimental: (§1) Hypoglycaemic response assessments were conducted at predefined PG levels during hypoglycaemia development and recovery (Fig. 1b). Hypoglycaemic symptoms score (HSS), hypoglycaemia awareness, counterregulatory hormones, vital signs and cognitive function tests were assessed at baseline (PG5.5 mmol/l), during hypoglycaemia development (PG3.9 mmol/l and PG3.0 mmol/l) and at PGnadir.
The validated Edinburgh Hypoglycaemia Scale was used to determine hypoglycaemic symptoms, which were classified into 11 different autonomic, neuroglycopenic and non-specific symptoms of hypoglycaemia [14, 15]. The participant scored each of the 11 symptoms on a seven-point scale (1=‘not at all’, while 7=‘a great deal’). The total score was derived as 11 multiplied by the mean score for all symptoms.
(§2) Changes in HSS, vital signs and cognitive function tests from baseline (PG5.5 mmol/l) to PG3.0 mmol/l and to PGnadir were compared between insulin products at each of the two dose levels using the same approach as described for PGnadir, except that no logarithmic transformation was done and that the baseline value was included as a covariate. Least-squares means, treatment difference and 95% CI were derived.

[2] = test system: individuals with type 2 diabetes; type: in vivo, human; settings: for Mean PGnadir, treatment ratio (95% CI) icodec vs glargine U100 / Mean PGnadir, estimated geometric mean: all participants; for Time to recovery from PGnadir to PG5.5 mmol/l, estimated geometric mean: constant i.v. glucose 5.5 mg kg^−1 min^−1; for Time to recovery from PGnadir to PG5.5 mmol/l, estimated geometric mean / Glucose needed from PGnadir to PG5.5 mmol/l, estimated geometric mean: individuals with PG <3.3 mmol/l at initiation of recovery; for Time to decline from PG5.5 mmol/l to PG3.9 mmol/l, estimated geometric mean: individuals with PG decline to <3.0 mmol/l and/or hypoglycaemia symptoms; for Time to decline from PG5.5 mmol/l to PG3.0 mmol/l, estimated geometric mean: individuals with PG decline to <3.0 mmol/l; for Mean PGnadir in the subgroup analysis: subgroup PGnadir <3.0 mmol/l and/or symptoms
Experimental: During the two treatment periods, participants received once-weekly icodec for 6 weeks or once-daily glargine U100 for 11 days in randomised order. […] Treatment periods were separated by 35–49 days of washout following icodec and 4–11 days of washout following glargine U100. Icodec (4200 nmol/ml; Novo Nordisk, Bagsværd, Denmark) was administered s.c. in the left thigh at 20:00 hours by qualified site staff using a NovoPen 4 pen injector (Novo Nordisk). […] At the start of week 1, a one-time additional 100% icodec dose was administered to accelerate time to steady state, followed by a normal dose at week 2, a double dose at week 3 (prior to hypoglycaemia induction), no dose at week 4 (due to the double dose given the week before), a normal dose at week 5, and a triple dose at week 6 (prior to hypoglycaemia induction). Insulin glargine U100 (100 U/ml [600 nmol/ml]; Sanofi, Paris, France) was administered s.c. in the right thigh at 09:00 hours by qualified site staff using a SoloStar pen injector (Sanofi). A normal dose of once-daily glargine U100 was established during run in. Glargine U100 was administered at a normal dose for 3 days followed by a double dose on day 4 (prior to hypoglycaemia induction), no dose on day 5 (due to the double dose given the day before), then a normal dose for 5 days, and a triple dose on day 11 (prior to hypoglycaemia induction).
Hypoglycaemia induction was carried out during weeks 3 (double dose) and 6 (triple dose) for icodec and on days 4 (double dose) and 11 (triple dose) for glargine U100 while at steady state. To initiate hypoglycaemia induction, participants should not have experienced hypoglycaemia (PG <3.9 mmol/l) within 24 h or have any relevant medical condition that could confound the outcomes or pose unacceptable risk to the participant. Hypoglycaemia induction (Fig. 1b) was initiated at 16:00 hours 2 days after double/triple icodec dosing (44 h post dose) and on the day of double/triple glargine U100 dosing (7 h post dose). These timings were selected since they approximated the expected time of maximum glucose-lowering effect for both insulin products based on pharmacokinetic/pharmacodynamic modelling performed prior to the trial. For 7.5 h prior to hypoglycaemia induction, PG was kept at 5.5 mmol/l by variable i.v. infusion of glucose (20% wt/vol) or human soluble insulin (100 U/ml in 99.6 ml saline [154 mmol/l NaCl]). PG was measured by a Super GL2 Glucose Analyzer (Dr. Müller Gerätebau, Freital, Germany). Insulin infusion was terminated 60 min prior to hypoglycaemia induction at the latest. PG was maintained at 5.5 mmol/l±20% from 60 min to 30 min prior to hypoglycaemia induction and at 5.5 mmol/l±10% during the last 30 min prior to hypoglycaemia induction. Hypoglycaemia induction was initiated by terminating glucose infusion, thereby allowing PG to decline towards the minimum (nadir) PG target level of no less than 2.5 mmol/l. The handling of alternative scenarios, e.g. PGnadir >2.5 mmol/l, slow PG decline towards hypoglycaemia or slow recovery from hypoglycaemia, is described in electronic supplementary material (ESM) Methods. The investigator recorded if the PGnadir was <3.0 mmol/l or ≥3.0 mmol/l with hypoglycaemic symptoms. The PGnadir level was maintained for 15 min by variable i.v. glucose as needed. Subsequently, euglycaemia was restored by constant i.v. glucose (5.5 mg kg^−1 min^−1) until PG was 5.5 mmol/l, which was maintained until the next morning (between 07:00 hours and 09:00 hours) by variable i.v. glucose. During hypoglycaemia induction, participants remained fasted (except for water ad libitum) and stayed in a supine or semi-supine position (except when cognitive tests were performed). Participants stayed at the clinical site for at least 12 h following each hypoglycaemia induction experiment. […]

[3] = test system: individuals with type 2 diabetes; assay: Hypoglycaemia awareness question 'Do you feel hypo?' during hypoglycaemia induction; type: in vivo, human; settings: subgroup
Experimental: Hypoglycaemia awareness was determined by asking the question, ‘Do you feel hypo?’, to the participant.

[4] = test system: individuals with type 2 diabetes; assay: Cognitive function: digit symbol substitution test (DSST); settings: for Change in DSST at PG3.0 mmol/l, least-squares mean / Change in DSST at PGnadir, least-squares mean: change from baseline, subgroup
Experimental: as §1
(§3) Cognitive function was assessed using the trail making B (TMB) test, the digit symbol substitution test (DSST) and the four-choice reaction time (4CRT) test. In the TMB test from the Halstead Reitan Neuropsychological Battery [16, 17], the participant connects 25 circles distributed on a chart in the correct sequence as quickly as possible. The circles contain a number (1–13) or a letter (A–L), and the correct sequence consists of alternating numbers and letters (i.e. 1–A–2–B–3 etc). The test result is the time needed to complete the task correctly. In the DSST, which is a subtest of the Wechsler Adult Intelligence Scale - Revised [18], nine digits are represented by nine different symbols. During 90 s, the participant is requested to write down the appropriate symbol for as many numbers as possible in a given array. The test result is the number of correct responses. […] In 100 cycles, the participant responds by pressing the corresponding position on a keypad. The test result has two components: percentage of correct answers and the mean response time.
as §2

glucagon = assay: Counterregulatory hormone response: plasma glucagon (ELISA); type: in vivo, human; settings: for Glucagon at PG3.0 mmol/l, estimated geometric mean / Glucagon at PGnadir, estimated geometric mean: plasma, subgroup
Experimental: Plasma concentrations of glucagon were measured by an enzyme-linked immunosorbent assay (Mercodia AB, Uppsala, Sweden). Plasma concentrations of adrenaline (epinephrine) and noradrenaline (norepinephrine) were measured by liquid chromatography-mass spectrometry (Thermo Fisher Scientific, Dreieich, Germany). Serum concentrations of cortisol and growth hormone were measured by electrochemiluminescent immunoassays (Roche Diagnostics, Mannheim, Germany).

[5] = test system: individuals with type 2 diabetes; assay: Cognitive function: trail making B (TMB) test; settings: for Change in TMB at PG3.0 mmol/l, least-squares mean / Change in TMB at PGnadir, least-squares mean: change from baseline, subgroup
Experimental: as §1, §3, §2

[6] = double dose, n=17 icodec, 15 glargine U100
[7] = double dose, n=20 icodec, 19 glargine U100
[8] = triple dose, n=20 icodec, 28 glargine U100
[9] = triple dose, n=20 icodec, 29 glargine U100
[10] = triple dose, listed as Insulin icodec
[11] = double dose, n=15 icodec, 13 glargine U100
[12] = triple dose, n=18 icodec, 22 glargine U100
[13] = double dose, n=16 icodec, 15 glargine U100
[14] = double dose, n=18 icodec, 18 glargine U100

Substance: insulin icodec
- Change in HSS at PG3.0 mmol/l, treatment difference (95% CI) icodec vs glargine U100 ([1]; double dose): 1.2 (-1.5, 4.0)
- Change in HSS at PGnadir, treatment difference (95% CI) icodec vs glargine U100 ([1]; double dose): -0.3 (-4.0, 3.5)
- Change in HSS at PG3.0 mmol/l, least-squares mean [1, 6]: 1.8
- Change in HSS at PGnadir, least-squares mean [1, 7]: 6.0
- Change in HSS at PGnadir, treatment difference (95% CI) icodec vs glargine U100 ([1]; triple dose): 0.5 (-2.7, 3.6)
- Change in HSS at PG3.0 mmol/l, least-squares mean [1, 8]: 2.2
- Change in HSS at PGnadir, least-squares mean [1, 9]: 5.4
- Change in HSS at PG3.0 mmol/l, treatment difference (95% CI) icodec vs glargine U100 [1, 10]: -0.4 (-2.6, 1.8)
- Change in HSS at PG3.0 mmol/l, treatment difference (95% CI) icodec vs glargine U100 ([1]; triple dose, listed as icodec): −0.4
- Time to full recovery from hypoglycaemia ([2]; constant i.v. glucose infusion at 5.5 mg kg^−1 min^−1, double and triple doses): ≤ 30 min
- Glucose needed from PGnadir to PG5.5 mmol/l, treatment ratio (95% CI) icodec vs glargine U100 ([2]; double dose): 1.27 (1.05, 1.53)
- Time to decline from PG5.5 mmol/l to PG3.0 mmol/l, treatment ratio (95% CI) icodec vs glargine U100 ([2]; double dose): 0.64 (0.31, 1.33)
- Time to decline from PG5.5 mmol/l to PG3.9 mmol/l, treatment ratio (95% CI) icodec vs glargine U100 ([2]; double dose): 0.62 (0.48, 0.78)
- Time to recovery from PGnadir to PG5.5 mmol/l, treatment ratio (95% CI) icodec vs glargine U100 ([2]; double dose): 1.34 (1.16, 1.55)
- Mean PGnadir, treatment ratio (95% CI) icodec vs glargine U100 ([2]; double dose): 0.97 (0.94, 1.00)
- Mean PGnadir, estimated geometric mean ([2]; double dose, n=43 icodec, 42 glargine U100): 3.2 mmol/L
- Time to recovery from PGnadir to PG5.5 mmol/l, estimated geometric mean [2, 11]: 28.3 min
- Glucose needed from PGnadir to PG5.5 mmol/l, estimated geometric mean [2, 11]: 141 mg/kg
- Time to decline from PG5.5 mmol/l to PG3.9 mmol/l, estimated geometric mean [2, 7]: 0.7 h
- Time to decline from PG5.5 mmol/l to PG3.0 mmol/l, estimated geometric mean [2, 6]: 2.9 h
- Mean PGnadir in the subgroup analysis, treatment ratio [95% CI] icodec vs glargine U100 ([2]; double dose): 1.01
- Mean PGnadir in the subgroup analysis ([2]; double dose): 2.9 mmol/L
- Glucose needed from PGnadir to PG5.5 mmol/l, treatment ratio (95% CI) icodec vs glargine U100 ([2]; triple dose): 1.02 (0.83, 1.24)
- Time to decline from PG5.5 mmol/l to PG3.0 mmol/l, treatment ratio (95% CI) icodec vs glargine U100 ([2]; triple dose): 1.05 (0.68, 1.64)
- Time to decline from PG5.5 mmol/l to PG3.9 mmol/l, treatment ratio (95% CI) icodec vs glargine U100 ([2]; triple dose): 0.90 (0.78, 1.04)
- Time to recovery from PGnadir to PG5.5 mmol/l, treatment ratio (95% CI) icodec vs glargine U100 ([2]; triple dose): 1.02 (0.82, 1.28)
- Mean PGnadir, treatment ratio (95% CI) icodec vs glargine U100 ([2]; triple dose): 1.07 (1.04, 1.11)
- Mean PGnadir, estimated geometric mean ([2]; triple dose, n=38 icodec, 40 glargine U100): 3.1 mmol/L
- Time to recovery from PGnadir to PG5.5 mmol/l, estimated geometric mean [2, 12]: 23.8 min
- Glucose needed from PGnadir to PG5.5 mmol/l, estimated geometric mean [2, 12]: 116 mg/kg
- Time to decline from PG5.5 mmol/l to PG3.9 mmol/l, estimated geometric mean [2, 9]: 0.7 h
- Time to decline from PG5.5 mmol/l to PG3.0 mmol/l, estimated geometric mean [2, 8]: 2.4 h
- Mean PGnadir in the subgroup analysis, treatment ratio [95% CI] icodec vs glargine U100 ([2]; triple dose): 1.05
- Mean PGnadir in the subgroup analysis ([2]; triple dose): 2.9 mmol/L
- Proportion of individuals answering 'Yes' to 'Do you feel hypo?' ([3]; double dose, at PG3.0 mmol/l, n=9/17 icodec, 2/15 glargine U100): 52.9%
- Proportion of individuals answering 'Yes' to 'Do you feel hypo?' ([3]; double dose, at PGnadir, n=14/20 icodec, 10/19 glargine U100): 70.0%
- Proportion of individuals answering 'Yes' to 'Do you feel hypo?' ([3]; triple dose, at PG3.0 mmol/l, n=5/20 icodec, 8/28 glargine U100): 25.0%
- Proportion of individuals answering 'Yes' to 'Do you feel hypo?' ([3]; triple dose, at PGnadir, n=9/20 icodec, 15/29 glargine U100): 45.0%
- Change in DSST at PG3.0 mmol/l, treatment difference (95% CI) icodec vs glargine U100 ([4]; double dose): 1.2 (-3.1, 5.5)
- Change in DSST at PGnadir, treatment difference (95% CI) icodec vs glargine U100 ([4]; double dose): 0.6 (-3.7, 4.9)
- Change in DSST at PG3.0 mmol/l, least-squares mean [4, 13]: -5.4 number of correct responses
- Change in DSST at PGnadir, least-squares mean [4, 14]: -6.7 number of correct responses
- Change in DSST at PG3.0 mmol/l, treatment difference (95% CI) icodec vs glargine U100 ([4]; triple dose): 0.5 (-3.3, 4.3)
- Change in DSST at PGnadir, treatment difference (95% CI) icodec vs glargine U100 ([4]; triple dose): -2.2 (-6.8, 2.5)
- Change in DSST at PGnadir, least-squares mean ([4]; triple dose, n=19 icodec, 29 glargine U100): -9.1 number of correct responses
- Change in DSST at PG3.0 mmol/l, least-squares mean [4, 8]: -5.5 number of correct responses
- Glucagon at PG3.0 mmol/l, treatment ratio (95% CI) icodec vs glargine U100 (glucagon; double dose): 0.83 (0.59, 1.16)
- Glucagon at PGnadir, treatment ratio (95% CI) icodec vs glargine U100 (glucagon; double dose): 0.92 (0.69, 1.23)
- Glucagon at PG3.0 mmol/l, estimated geometric mean (glucagon; [6]): 39.6 ng/L
- Glucagon at PGnadir, estimated geometric mean (glucagon; double dose, n=19 icodec, 19 glargine U100): 48.9 ng/L
- Glucagon at PGnadir, treatment ratio (95% CI) icodec vs glargine U100 (glucagon; triple dose): 1.01 (0.74, 1.38)
- Glucagon at PG3.0 mmol/l, treatment ratio (95% CI) icodec vs glargine U100 (glucagon; [10]): 1.07 (0.86, 1.33)
- Glucagon at PG3.0 mmol/l, treatment ratio (95% CI) icodec vs glargine U100 (glucagon; triple dose, listed as icodec): 1.07
- Glucagon at PG3.0 mmol/l, estimated geometric mean (glucagon; [8]): 55.2 ng/L
- Glucagon at PGnadir, estimated geometric mean (glucagon; [9]): 59.8 ng/L
- Change in TMB at PG3.0 mmol/l, treatment difference (95% CI) icodec vs glargine U100 ([5]; double dose): 0.4 (-0.3, 1.0)
- Change in TMB at PGnadir, treatment difference (95% CI) icodec vs glargine U100 ([5]; double dose): 0.3 (-0.2, 0.9)
- Change in TMB at PG3.0 mmol/l, least-squares mean [5, 13]: 0.3 s
- Change in TMB at PGnadir, least-squares mean [5, 14]: 0.3 s
- Change in TMB at PG3.0 mmol/l, treatment difference (95% CI) icodec vs glargine U100 ([5]; triple dose): -0.1 (-0.4, 0.2)
- Change in TMB at PGnadir, treatment difference (95% CI) icodec vs glargine U100 ([5]; triple dose): -0.1 (-0.3, 0.1)
- Change in TMB at PGnadir, least-squares mean ([5]; triple dose, n=19 icodec, 28 glargine U100): -0.0 s
- Change in TMB at PG3.0 mmol/l, least-squares mean ([5]; triple dose, n=20 icodec, 26 glargine U100): -0.0 s

From PMC10317887, “Hypoglycaemia frequency and physiological response after double or triple doses of once-weekly insulin icodec vs once-daily insulin glargine U100 in type 2 diabetes: a randomised crossover trial” (Diabetologia, 2023)
